Assay results: US20120101100A1 (priority 2008, published 2012)

Molecular target: S. aureus GyrB ATPase (Staphylococcus aureus, UniProt P0A0K8)
Assay: S. aureus (SAU) GyrB ATPase inhibition, malachite green phosphate detection (E. coli GyrA + S. aureus GyrB)
Format: biochemical
Settings: compound concentration of 1.0 μM unless otherwise noted; average value where assay was carried out more than once; read-out: S. aureus (SAU) GyrB ATPase % Inhibition
Outline: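 Phosphate from ATP hydrolysis (500 μM ATP) read as malachite green/molybdate absorbance at 650 nm after acid quench. Reaction: 1.25 nM S. aureus GyrB plus 1.25 nM E. coli GyrA, sheared DNA, Hepes pH 7.5 with Mg2+. IC50 fitted over 10 concentrations, normalised to DMSO (2%) and novobiocin (2 μM) controls.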

S. aureus GyrB ATPase, sequence (P0A0K8 whole entry): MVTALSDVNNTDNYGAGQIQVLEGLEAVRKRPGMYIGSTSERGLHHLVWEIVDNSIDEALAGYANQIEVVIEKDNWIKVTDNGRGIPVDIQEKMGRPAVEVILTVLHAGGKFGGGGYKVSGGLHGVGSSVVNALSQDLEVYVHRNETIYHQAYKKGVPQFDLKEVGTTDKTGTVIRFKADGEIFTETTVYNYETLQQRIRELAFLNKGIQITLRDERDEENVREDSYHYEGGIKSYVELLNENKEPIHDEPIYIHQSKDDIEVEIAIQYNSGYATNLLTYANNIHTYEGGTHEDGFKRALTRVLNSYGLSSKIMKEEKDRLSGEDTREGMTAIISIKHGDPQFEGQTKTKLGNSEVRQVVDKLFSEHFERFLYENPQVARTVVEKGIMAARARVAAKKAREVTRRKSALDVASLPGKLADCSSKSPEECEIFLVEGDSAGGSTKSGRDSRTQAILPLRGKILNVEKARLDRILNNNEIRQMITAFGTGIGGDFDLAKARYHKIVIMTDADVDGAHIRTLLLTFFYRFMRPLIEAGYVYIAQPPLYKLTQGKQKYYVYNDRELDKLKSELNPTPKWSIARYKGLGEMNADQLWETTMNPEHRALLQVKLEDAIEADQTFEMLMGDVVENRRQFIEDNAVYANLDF
S. aureus GyrB ATPase, sequence (P0AES4 whole entry, further chain): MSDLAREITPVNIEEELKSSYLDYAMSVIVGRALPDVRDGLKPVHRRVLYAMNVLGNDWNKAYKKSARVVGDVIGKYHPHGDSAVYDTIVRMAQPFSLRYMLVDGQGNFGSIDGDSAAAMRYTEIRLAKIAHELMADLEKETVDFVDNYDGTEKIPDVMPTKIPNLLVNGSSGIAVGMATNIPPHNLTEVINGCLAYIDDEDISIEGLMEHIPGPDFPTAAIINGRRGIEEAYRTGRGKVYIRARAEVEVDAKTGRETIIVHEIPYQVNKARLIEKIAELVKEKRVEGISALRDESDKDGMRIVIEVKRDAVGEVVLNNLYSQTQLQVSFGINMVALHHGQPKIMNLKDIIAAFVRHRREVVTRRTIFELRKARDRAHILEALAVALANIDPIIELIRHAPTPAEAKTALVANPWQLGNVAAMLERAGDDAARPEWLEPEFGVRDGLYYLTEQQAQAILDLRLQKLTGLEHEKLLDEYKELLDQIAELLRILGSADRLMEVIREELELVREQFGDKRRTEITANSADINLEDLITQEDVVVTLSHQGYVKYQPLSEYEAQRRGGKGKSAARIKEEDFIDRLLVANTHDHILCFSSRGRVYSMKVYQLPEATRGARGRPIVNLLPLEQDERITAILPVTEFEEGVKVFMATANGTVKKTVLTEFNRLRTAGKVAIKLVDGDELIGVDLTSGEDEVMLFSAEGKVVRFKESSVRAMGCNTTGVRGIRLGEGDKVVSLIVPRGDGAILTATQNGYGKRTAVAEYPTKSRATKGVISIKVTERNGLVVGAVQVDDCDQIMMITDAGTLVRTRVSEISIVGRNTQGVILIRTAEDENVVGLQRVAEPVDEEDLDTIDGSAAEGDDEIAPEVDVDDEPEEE

Structure (SMILES)	inhibition at 1 µM [%]
CCNC(=O)Nc1cc(-c2nc(C(F)(F)F)cs2)c(-c2cc(-c3n[nH]c(=O)o3)cnc2OC)cn1 [Example 101, 1-Ethyl-3-(2′-methoxy-5′-(5-oxo-4,5-dihydro-1,3,4-oxadiazol-2-yl)-4-(4-(trifluoromethyl)thiazol-2-yl)-3,3′-bipyridin-6-yl)urea]	97
CCNC(=O)Nc1cc(-c2nc(-c3cnn(C)c3)cs2)c(-c2cc(-c3n[nH]c(=O)o3)cnc2OCC2CC2)cn1 [Example 221]	99
CCNC(=O)Nc1cc(-c2nnc(-c3ccccc3)o2)c(-c2ccnc(-c3nnc(C)o3)c2)cn1 [Example 229]	99
CCNC(=O)Nc1cc(-c2nc(C(F)(F)F)c(C(=O)NCCN3CCN(C)CC3)s2)c(-c2cncc(-c3nnc(C)o3)c2)cn1 [Example 64, 2-(6-(3-ethylureido)-5′-(5-methyl-1,3,4-oxadiazol-2-yl)-3,3′-bipyridin-4-yl)-N-(2-(4-methylpiperazin-1-yl)ethyl)-4-(trifluoromethyl)thiazole-5-carboxamide]	98
CCNC(=O)Nc1cc(-c2nc(-c3ccccc3)cs2)c(-c2nc(-c3ncccn3)c(-c3nnc(C)o3)s2)cn1 [Example 98, 1-ethyl-3-(5-(5-(5-methyl-1,3,4-oxadiazol-2-yl)-4-(pyrimidin-2-yl)thiazol-2-yl)-4-(4-phenylthiazol-2-yl)pyridin-2-yl)urea]	100
CCNC(=O)Nc1cc(-c2nc(C(F)(F)F)cs2)c(-c2cncc(-c3nc(C)n[nH]3)c2)cn1 [Example 7, 1-Ethyl-3-(5′-(3-methyl-1H-1,2,4-triazol-5-yl)-4-(4-(trifluoromethyl)thiazol-2-yl)-3,3′-bipyridin-6-yl)urea]	90
CCNC(=O)Nc1cc(-c2nc(-c3ccccc3)cs2)c(-c2ccnc(-c3n[nH]c(=O)o3)c2)cn1 [Example 95, 1-ethyl-3-(2′-(5-oxo-4,5-dihydro-1,3,4-oxadiazol-2-yl)-4-(4-phenylthiazol-2-yl)-3,4′-bipyridin-6-yl)urea]	99
CCNC(=O)Nc1cc(-c2nc(C(F)(F)F)cs2)c(-c2ccc(F)nc2)cn1 [Example 127]	100
CCNC(=O)Nc1cc(-c2nc(C(F)(F)F)cs2)c(-c2cc(-c3n[nH]c(=O)o3)cnc2OC2CCN(C)CC2)cn1 [Example 215]	96
CCNC(=O)Nc1cc(-c2nc(-c3ccccn3)cs2)c(-c2ccnc(-c3n[nH]c(=O)o3)c2)cn1 [Example 106, 1-Ethyl-3-(2′-(5-oxo-4,5-dihydro-1,3,4-oxadiazol-2-yl)-4-(4-(pyridin-2-yl)thiazol-2-yl)-3,4′-bipyridin-6-yl)urea]	102
CCNC(=O)Nc1cc(-c2nc(C(F)(F)F)cs2)c(-c2cncc(-c3nn(C)c(=O)o3)c2)cn1 [Example 140]	97
CCNC(=O)Nc1cc(-c2nc(-c3cccnc3F)cs2)c(-c2cncc(-c3n[nH]c(=O)o3)c2)cn1 [Example 204]	101
CCNC(=O)Nc1cc(-c2nnc(-c3ccccc3)o2)c(-c2nc(-c3n[nH]c(=O)o3)cs2)cn1 [Example 193]	89
CCNC(=O)Nc1cc(-c2nc(C(F)(F)F)cs2)c(-c2cncc(-c3nnc(NCCCN(C)C)o3)c2)cn1 [Example 152, 1-(5′-(5-(3-(Dimethylamino)propylamino)-1,3,4-oxadiazol-2-yl)-4-(4-(trifluoromethyl)thiazol-2-yl)-3,3′-bipyridin-6-yl)-3-ethylurea]	95
CCNC(=O)Nc1cc(-c2ccnn2C)c(-c2cncc(-c3n[nH]c(=O)o3)c2)cn1 [Example 28, 1-ethyl-3-(4-(1-methyl-1H-pyrazol-5-yl)-5′-(5-oxo-4,5-dihydro-1,3,4-oxadiazol-2-yl)-3,3′-bipyridin-6-yl)urea]	70
CCNC(=O)Nc1cc(-c2nc(C(F)(F)F)cs2)c(-c2ccnc(-c3nnc(C)o3)c2)cn1 [Example 228]	93
CCNC(=O)Nc1cc(-c2nc(C(F)(F)F)cs2)c(-c2cncc(-c3nnc(N4CC[C@H](O)C4)o3)c2)cn1 [Example 179]	101
CCNC(=O)Nc1cc(-c2nc(C(F)(F)F)cs2)c(-c2cncc(-c3n[nH]c(=O)o3)c2)cn1 [Example 6, 1-ethyl-3-(5′-(5-oxo-4,5-dihydro-1,3,4-oxadiazol-2-yl)-4-(4-(trifluoromethyl)thiazol-2-yl)-3,3′-bipyridin-6-yl)urea]	106
CCNC(=O)Nc1cc(-c2nc(C(F)(F)F)cs2)c(-c2cc(-c3n[nH]c(=O)o3)cnc2OCC2CC2)cn1 [Example 216]	96
CCNC(=O)Nc1cc(-n2ccc(C(F)(F)F)n2)c(-c2cncc(-c3nnc([C@@H](N)C(C)C)o3)c2)cn1 [Example 165]	98
CCNC(=O)Nc1cc(-c2nc(-c3ccccn3)cs2)c(-c2cncc(-c3nnc(C)o3)c2)cn1 [Example 104, 1-Ethyl-3-(5′-(5-methyl-1,3,4-oxadiazol-2-yl)-4-(4-(pyridin-2-yl)thiazol-2-yl)-3,3′-bipyridin-6-yl)urea]	98
CCNC(=O)Nc1cc(-c2nc(-c3ccccc3)cs2)c(-c2cc(OC(C)C)nc(-c3n[nH]c(=O)o3)c2)cn1 [Example 81, 1-ethyl-3-(2′-isopropoxy-6′-(5-oxo-4,5-dihydro-1,3,4-oxadiazol-2-yl)-4-(4-phenylthiazol-2-yl)-3,4′-bipyridin-6-yl)urea]	94
CCNC(=O)Nc1cc(-c2nc(C(F)(F)F)cs2)c(-c2cncc(-c3nnc(CN(C)C)o3)c2)cn1 [Example 268, 1-(5′-(5-((dimethylamino)methyl)-1,3,4-oxadiazol-2-yl)-4-(4-(trifluoromethyl)thiazol-2-yl)-3,3′-bipyridin-6-yl)-3-ethylurea]	98
CCNC(=O)Nc1cc(-c2nc(C(F)(F)F)cs2)c(-c2cc(-c3n[nH]c(=O)o3)cnc2OCCN2CCCC2)cn1 [Example 186]	110
CCNC(=O)Nc1cc(-c2nc(C3CCCCC3)cs2)c(-c2cncc(-c3n[nH]c(=O)o3)c2)cn1 [Example 211]	109
CCNC(=O)Nc1cc(-c2nnc(-c3ccncc3)o2)c(-c2cncc(-c3n[nH]c(=O)o3)c2)cn1 [Example 38, 1-ethyl-3-(5′-(5-oxo-4,5-dihydro-1,3,4-oxadiazol-2-yl)-4-(5-(pyridin-4-yl)-1,3,4-oxadiazol-2-yl)-3,3′-bipyridin-6-yl)urea]	108
CCNC(=O)Nc1cc(-c2nc(C(F)(F)F)cs2)c(-c2cc(OCC)nc(-c3n[nH]c(=O)o3)c2)cn1 [Example 75, 1-(2′-ethoxy-6′-(5-oxo-4,5-dihydro-1,3,4-oxadiazol-2-yl)-4-(4-(trifluoromethyl)thiazol-2-yl)-3,4′-bipyridin-6-yl)-3-ethylurea]	99
CCNC(=O)Nc1cc(-c2nc3ccccc3s2)c(-c2cncc(-c3n[nH]c(=O)o3)c2)cn1 [Example 12, 1-(4-(benzo[d]thiazol-2-yl)-5′-(5-oxo-4,5-dihydro-1,3,4-oxadiazol-2-yl)-3,3′-bipyridin-6-yl)-3-ethylurea]	108
CCCCOc1ncc(-c2cnc(NC(=O)NCC)cc2-c2nc(C(F)(F)F)cs2)cc1-c1n[nH]c(=O)o1 [Example 40, 1-(6′-butoxy-5′-(5-oxo-4,5-dihydro-1,3,4-oxadiazol-2-yl)-4-(4-(trifluoromethyl)thiazol-2-yl)-3,3′-bipyridin-6-yl)-3-ethylurea]	117
